Molecular target: Neuronal acetylcholine receptor subunit alpha-7 (Homo sapiens, UniProt P36544)
Experiment: Agonist activity at alpha7 nAChR (unknown origin)

Sequence of Neuronal acetylcholine receptor subunit alpha-7 (P36544 whole entry): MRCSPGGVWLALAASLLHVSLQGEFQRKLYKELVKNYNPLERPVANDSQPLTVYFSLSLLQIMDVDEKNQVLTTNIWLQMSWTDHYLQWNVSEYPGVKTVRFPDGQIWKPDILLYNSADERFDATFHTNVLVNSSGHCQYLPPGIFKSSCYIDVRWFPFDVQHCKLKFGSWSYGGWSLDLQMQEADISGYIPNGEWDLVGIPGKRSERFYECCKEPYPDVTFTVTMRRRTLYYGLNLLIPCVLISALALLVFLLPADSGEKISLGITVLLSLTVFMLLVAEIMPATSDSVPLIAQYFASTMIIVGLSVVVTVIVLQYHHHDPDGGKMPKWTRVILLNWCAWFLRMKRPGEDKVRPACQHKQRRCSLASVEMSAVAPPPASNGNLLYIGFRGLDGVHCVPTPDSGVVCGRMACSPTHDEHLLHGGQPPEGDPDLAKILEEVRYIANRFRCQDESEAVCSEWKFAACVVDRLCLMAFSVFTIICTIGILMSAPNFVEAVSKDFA

Row | SMILES | IC50 [nM]
1 | COc1ccc(NC(=O)N2CCNCC2COc2cccnc2)cc1 (stereo not given) | 11
2 | c1cncc(OC[C@H]2CNCCN2c2nc3ncccc3o2)c1 | 6
3 | COc1ccc(NC(=O)N2CCNC[C@@H]2COc2cccnc2)cc1 | 19
4 | COc1ccc(NC(=O)N2CCNCC2CCc2cccnc2)cc1 (stereo not given) | > 5000
5 | COc1ccc(OC(=O)N2CCNCC2CCc2cccnc2)cc1 (stereo not given) | > 5000

— ChEMBL document CHEMBL3808359, “Conformational analysis of 2-substituted piperazines” (Bioorg Med Chem Lett, 2016)
